Results taken from article PMC12134901, “Synthesis and characterization of thymol-derived phenoxy acetamide derivatives using DFT, molecular docking, and parasitological investigations” (Frontiers in Chemistry, 2025).
Converted amounts (≈) assume the structure as drawn.

How the values were obtained:
[1] = Hemolytic activity assay (cytotoxicity on RBCs); type: cell-based, rat; details: rat, washed erythrocytes (RBCs) suspended in PBS, 60 min at 37°C; for hemolysis at 60 min, 62.5 μg/mL: pH 7.4, 62.5 μg/mL; for hemolysis at 60 min, 125 μg/mL: pH 7.4, 125 μg/mL; for hemolysis at 60 min, 250 μg/mL: pH 7.4, 250 μg/mL; for hemolysis at 60 min, 500 μg/mL: pH 7.4, 500 μg/mL; for hemolysis at 60 min, 1000 μg/mL: pH 7.4, 1,000 μg/mL
Protocol: (§1) The hemolytic effect of different compounds was evaluated using an existing method. ([Diaconu et al., 2020]). One milliliter of rat blood was collected, added to a sterile, screw-top EDTA tube, and centrifuged at 3000 rpm for 20 min. The upper layer was decanted, and the erythrocytes were rinsed several times with 10 mL of cooled isotonic and sterile phosphate-buffered saline (PBS) with a pH of 7.4. The rinsed cells were re-suspended in 20 mL sterile, cold PBS. The compounds (serial dilutions of 62.5–1,000 μg/mL in DMSO) were added to the erythrocyte solution and incubated for 60 min at 37°C. After centrifugation at 3000 rpm for 10 min, the absorbance of hemoglobin in the supernatant at 540 nm was used to calculate the hemolysis rate. Triton X-100 (0.1% in PBS) was used as a positive control, and the vehicle (PBS/DMSO) was used as the negative control. The hemolysis percentage was calculated as follows: Hemolysis percentage = (Ab of sample − Ab of negative control)/(Ab of positive control–Ab of negative control) × 100.

Cryptosporidium oocysts = assay: Oocyst shedding in feces of Cryptosporidium-infected immunosuppressed mice (modified Ziehl–Neelsen stain); type: in vivo; details: compounds 100 mg/kg/day, NTZ 250 mg/kg/day, orally from 7th day post-infection for 10 days; for Shed oocysts/mg (Mean ± SD): immunosuppressed infected mice, feces 30 days post infection; for R%: reduction percent in oocyst count: vs infected non-treated G2
Description: Cryptosporidium oocysts were obtained from the Parasitology Lab, Theodor Bilharz Research Institute, Giza, Egypt. Before infection, the oocysts were concentrated and counted in PBS using a hemocytometer. To maintain the organism cycle, five mice were inoculated with 3000–3500 oocysts using a tuberculin syringe in an intra-esophageal manner. ([Operario et al., 2015]).
Eighty healthy laboratory-bred adult male Swiss albino mice weighing 30–40 g were purchased from the animal house of the Faculty of Pharmacy, Pharos University. The animals were allowed to acclimatize for 1 week to the environmental conditions and housed in grouped plastic cages away from direct sunlight, under appropriate sanitary conditions and controlled temperature and humidity.
Immune suppression was induced and maintained throughout the experiment by administering dexamethasone (Dexazone, Al Kahira Pharmaceutical and Chemical Industries) through oral-gastric gavage at a dose of 0.25 mg/g/d for 14 consecutive days prior to inoculation with Cryptosporidium oocysts. ([Najoom et al., 2021]).
On day 15 of dexamethasone treatment, mice in the infected groups were inoculated with 10^4 Cryptosporidium oocysts using oral-gastric gavage. Before infection, oocysts were concentrated and counted in PBS using a hemocytometer.
Mice were distributed equally into eight groups of 10 each. At the end of the experiment, all animals were anesthetized for parasitological, ultrastructural, immunological, and biochemical studies. Mice grouping details are provided in the Supplementary Material.
On the final day of the experiment (30 days post infection), fresh fecal pellets from the infected mice in each group were collected to count the number of oocysts. Every sample was homogenized through suspension in double-distilled H2O. Subsequently, a fecal smear of 1 mg feces was prepared and stained using the modified Ziehl–Neelsen staining method. The stained fecal smear was examined microscopically, and the Cryptosporidium oocysts were counted. The number of oocysts per mg feces for each mouse was tabulated as the mean value for each group. All reported data represent the means of three independent trials.

TNF-α = assay: Serum TNF-α in infected immunosuppressed mice (ELISA); type: in vivo; details: compounds 100 mg/kg/day, NTZ 250 mg/kg/day, orally 10 days, mean ± SD
Protocol: (§2) Serum concentrations of IFN-γ, TNF-α, IL-6, and IL-10 for each group were determined using an enzyme-linked immunosorbent assay reader, following the manufacturer’s protocol.

IFN-γ = assay: Serum IFN-γ in infected immunosuppressed mice (ELISA); type: in vivo; details: compounds 100 mg/kg/day, NTZ 250 mg/kg/day, orally 10 days, mean ± SD
Protocol: as §2

IL-6 = assay: Serum IL-6 in infected immunosuppressed mice (ELISA); type: in vivo; details: compounds 100 mg/kg/day, NTZ 250 mg/kg/day, orally 10 days, mean ± SD
Protocol: as §2

IL-10 = assay: Serum IL-10 in infected immunosuppressed mice (ELISA); type: in vivo; details: compounds 100 mg/kg/day, NTZ 250 mg/kg/day, orally 10 days, mean ± SD
Protocol: as §2

RBCs = assay: Hemolytic activity assay (cytotoxicity on RBCs); type: cell-based, rat; details: for IC50: Rattus norvegicus, read-out: IC50: sample concentration causing 50% hemolysis of RBCs, highest tested concentration 1,000 μg/mL
Protocol: as §1

[2] = tested on: small intestinal epithelial cells; assay: TEM of small intestine sections of treated infected mice; type: in vivo
Protocol: The small intestine of each mouse was removed, cut into small pieces (1 mm^3), fixed in 2% glutaraldehyde in 0.1 M phosphate buffer, postfixed in 1% osmium tetraoxide for 2 h at 4°C, dehydrated, and embedded in Epon. Semi-thin and ultrathin sections (two samples per mouse) were prepared using an ultramicrotome. The sections were stained and analyzed using a transmission electron microscope.

Molecule `Cc1ccc(C(C)C)c(OCC(=O)NN2C(=O)c3ccccc3C2=O)c1` [Compound 5a, N-(1,3-dioxoisoindolin-2-yl)-2-(2-isopropyl-5-methylphenoxy)acetamide] has a hemolysis at 60 min, 62.5 μg/mL [1] of 0%, a hemolysis at 60 min, 125 μg/mL [1] of 0% and a hemolysis at 60 min, 250 μg/mL [1] of 0%. The hemolysis at 60 min, 500 μg/mL [1] was 0%, the hemolysis at 60 min, 1000 μg/mL [1] was 0% and the “Shed oocysts/mg (Mean ± SD)” value (Cryptosporidium oocysts) was 13.2 ± 1.034 oocysts/mg. The “R%: reduction percent in oocyst count” value (Cryptosporidium oocysts) was 62%, the TNF-α (TNF-α) was 13.1 ± 0.99 pg/mL and the IFN-γ (IFN-γ) was 477.8 ± 1.61 pg/mL. It also gave an IL-6 (IL-6) of 176.8 ± 0.91 pg/mL and an IL-10 (IL-10) of 327.6 ± 1.34 pg/mL.
For `Cc1ccc(C(C)C)c(OCC(=O)NN2C(=O)c3ccc(C(=O)O)cc3C2=O)c1` [Compound 5b, 2-(2-(2-Isopropyl-5-methylphenoxy)acetamido)-1,3-dioxoisoindoline-5-carboxylic acid], the hemolysis at 60 min, 62.5 μg/mL [1] was 0%, the hemolysis at 60 min, 125 μg/mL [1] was 0% and the hemolysis at 60 min, 250 μg/mL [1] was 0%. For the same molecule, the hemolysis at 60 min, 500 μg/mL [1] was 0%, the hemolysis at 60 min, 1000 μg/mL [1] was 0% and the “Shed oocysts/mg (Mean ± SD)” value (Cryptosporidium oocysts) was 14.7 ± 0.67 oocysts/mg. For the same molecule, the “R%: reduction percent in oocyst count” value (Cryptosporidium oocysts) was 57%, the TNF-α (TNF-α) was 13.7 ± 1.25 pg/mL and the IFN-γ (IFN-γ) was 494.2 ± 3.15 pg/mL. It also gave an IL-6 (IL-6) of 181.7 ± 149 pg/mL and an IL-10 (IL-10) of 387.8 ± 0.78 pg/mL.
For `Cc1ccc(C(C)C)c(OCC(=O)NN2C(=O)c3cccc4cccc(c34)C2=O)c1` [Compound 7a, N-(1,3-dioxo-1H-benzo[de]isoquinolin-2(3H)-yl)-2-(2-isopropyl-5-methylphenoxy) acetamide], the hemolysis at 60 min, 62.5 μg/mL [1] was 0%, the hemolysis at 60 min, 125 μg/mL [1] was 0% and the hemolysis at 60 min, 250 μg/mL [1] was 0%. For the same molecule, the hemolysis at 60 min, 500 μg/mL [1] was 5.02%, the hemolysis at 60 min, 1000 μg/mL [1] was 6.18% and the Hemolysis % (RBCs; 1,000 μg/mL, 60 min at 37°C) was 6.1873%. For the same molecule, the IC50 (RBCs) was 6750 µg/mL (≈ 16.8 mM), the “Shed oocysts/mg (Mean ± SD)” value (Cryptosporidium oocysts) was 16.8 ± 0.63 oocysts/mg and the “R%: reduction percent in oocyst count” value (Cryptosporidium oocysts) was 51%. The TNF-α (TNF-α) was 15.9 ± 0.87 pg/mL, the IFN-γ (IFN-γ) was 608.8 ± 2.48 pg/mL and the IL-6 (IL-6) was 237.4 ± 2.23 pg/mL. For the same molecule, the IL-10 (IL-10) was 434.2 ± 1.13 pg/mL.
In the case of `Cc1ccc(C(C)C)c(OCC(=O)NN2C(=O)c3cccc4c(N)ccc(c34)C2=O)c1` [Compound 7b, N-(6-amino-1,3-dioxo-1H-benzo[de]isoquinolin-2(3H)-yl)-2-(2-isopropyl-5-methylphenoxy)acetamide], the hemolysis at 60 min, 62.5 μg/mL [1] is reported as 0%, the hemolysis at 60 min, 125 μg/mL [1] is reported as 0% and the hemolysis at 60 min, 250 μg/mL [1] is reported as 0%. The hemolysis at 60 min, 500 μg/mL [1] was 0%, the hemolysis at 60 min, 1000 μg/mL [1] was 0% and the “Shed oocysts/mg (Mean ± SD)” value (Cryptosporidium oocysts) was 11.5 ± 0.85 oocysts/mg. For the same molecule, the “R%: reduction percent in oocyst count” value (Cryptosporidium oocysts) was 67%, the “TEM ultrastructure of small intestine sections” value [2] was “healthy microvilli (slightly disfigured and disarranged)” and the TNF-α (TNF-α) was 11.8 ± 1.03 pg/mL. The IFN-γ (IFN-γ) was 415.2 ± 2.57 pg/mL, the IL-6 (IL-6) was 143.1 ± 1.1 pg/mL and the IL-10 (IL-10) was 277.2 ± 1.47 pg/mL.
In the case of `Cc1ccc(C(C)C)c(OCC(=O)Nn2c(=O)c3cc4c(=O)n(NC(=O)COc5cc(C)ccc5C(C)C)c(=O)c4cc3c2=O)c1` [Compound 9, N,N'-(1,3,5,7-tetraoxopyrrolo[3,4-f]isoindole-2,6(1H,3H,5H,7H)-diyl)bis(2-(2-isopropyl-5-methylphenoxy)acetamide)], the hemolysis at 60 min, 62.5 μg/mL [1] is reported as 0%, the hemolysis at 60 min, 125 μg/mL [1] is reported as 0% and the hemolysis at 60 min, 250 μg/mL [1] is reported as 0%. It also gave a hemolysis at 60 min, 500 μg/mL [1] of 0%, a hemolysis at 60 min, 1000 μg/mL [1] of 35% and an IC50 (RBCs) of 1560 µg/mL (≈ 2.48 mM). For the same molecule, the “Shed oocysts/mg (Mean ± SD)” value (Cryptosporidium oocysts) was 15.4 ± 0.52 oocysts/mg, the “R%: reduction percent in oocyst count” value (Cryptosporidium oocysts) was 55% and the TNF-α (TNF-α) was 16.2 ± 1.03 pg/mL. It also gave an IFN-γ (IFN-γ) of 534.2 ± 1.26 pg/mL, an IL-6 (IL-6) of 215.7 ± 1.15 pg/mL and an IL-10 (IL-10) of 416.8 ± 0.63 pg/mL.
With `CC(=O)Oc1ccccc1C(=O)Nc1ncc([N+](=O)[O-])s1` [NTZ, nitazoxanide, reference compound] the “Shed oocysts/mg (Mean ± SD)” value (Cryptosporidium oocysts) was 10.4 ± 0.51 oocysts/mg, the “R%: reduction percent in oocyst count” value (Cryptosporidium oocysts) was 70% and the “TEM ultrastructure of small intestine sections” value [2] was “normal ultrastructure and regularly arranged apical microvilli with oval euchromatic nuclei”. For the same molecule, the TNF-α (TNF-α) was 7.8 ± 0.91 pg/mL and the IFN-γ (IFN-γ) was 422.1 ± 3.21 pg/mL.
